Target: T1, human PLK3 (Homo sapiens, UniProt Q9H4B4)
T1 construct: expressed in transfected cells
Assay type: cell-based

T1 sequence (Q9H4B4 whole entry): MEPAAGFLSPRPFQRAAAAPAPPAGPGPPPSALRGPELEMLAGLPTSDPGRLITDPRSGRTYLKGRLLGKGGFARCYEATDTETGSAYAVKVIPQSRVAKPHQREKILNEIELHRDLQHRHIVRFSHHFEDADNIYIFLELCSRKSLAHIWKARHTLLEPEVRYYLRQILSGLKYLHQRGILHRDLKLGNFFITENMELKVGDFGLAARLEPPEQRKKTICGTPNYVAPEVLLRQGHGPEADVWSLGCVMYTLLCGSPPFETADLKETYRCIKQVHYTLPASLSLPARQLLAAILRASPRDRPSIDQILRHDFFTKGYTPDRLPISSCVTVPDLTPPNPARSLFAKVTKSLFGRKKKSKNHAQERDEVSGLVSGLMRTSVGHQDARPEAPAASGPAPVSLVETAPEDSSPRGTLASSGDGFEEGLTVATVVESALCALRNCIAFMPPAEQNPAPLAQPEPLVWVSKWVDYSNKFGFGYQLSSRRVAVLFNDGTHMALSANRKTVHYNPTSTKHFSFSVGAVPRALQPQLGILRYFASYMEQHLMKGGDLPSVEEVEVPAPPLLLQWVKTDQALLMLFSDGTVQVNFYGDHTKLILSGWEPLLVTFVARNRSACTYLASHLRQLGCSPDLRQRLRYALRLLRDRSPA

Q: Which results are given for `COc1cc2ncn(-c3cc(OCc4ccccc4C(F)(F)F)c(C(N)=O)s3)c2cc1OC` [GW843682X]?
A: effect on the anti-HIV-1 ability of human PLK3: can inhibit the anti-HIV-1 ability of human PLK3; expression level of PLK3: not changed
